Assay results taken from patent US8318711B2, “Use of diacetyl trimer as an aromatic and flavouring substance” (Symrise AG, priority 2004, dated 2012).

Legend:
[1] = Tasting in sweet/salty solution (flavour profile by testers); type: in vivo; conditions: 1 ppm in aqueous 5% sucrose or 0.5% sodium chloride solution, 9 testers; for flavour profile: fatty (oily): scale 1 (action scarcely perceptible) to 9 (action highly perceptible)
Procedure: The 2,5-diacetyl-3a,5,6,6a-tetrahydro-6a-hydroxy-2,3a,5-trimethylfuro[2,3-d]-1,3-dioxole from Example 1 (1 ppm diacetyl trimer in aqueous 5 wt. % sucrose or 0.5% sodium chloride solution) was investigated for its flavouring action by 9 testers. The actions found were evaluated with a scale of from 1 (action scarcely perceptible) to 9 (action highly perceptible).
For comparison, a flavour profile of diacetyl (1 ppm in aq. 5% sucrose or 0.5% sodium chloride solution) was produced under otherwise identical conditions: fatty (oily) (5), cream (5), butter (7), milk (4), condensed milk (4), fruity (2), cheesy (2), sweet (4), vanillin (2), intensity (7), impact (7), fullness (7), adhesive (5), soft (6)

[2] = Stability of diacetyl trimer on heating; type: physicochemical; conditions: heated at 60° C. to 100° C. for 10 minutes

SMILES | flavour profile: fatty (oily) [1] | flavour profile: adhesive ([1]; scale 1 to 9) | flavour profile: butter ([1]; scale 1 to 9) | flavour profile: cheesy ([1]; scale 1 to 9) | flavour profile: condensed milk ([1]; scale 1 to 9) | flavour profile: cream ([1]; scale 1 to 9) | flavour profile: fruity ([1]; scale 1 to 9) | flavour profile: fullness ([1]; scale 1 to 9) | flavour profile: impact ([1]; scale 1 to 9) | flavour profile: intensity ([1]; scale 1 to 9) | flavour profile: milk ([1]; scale 1 to 9) | flavour profile: soft ([1]; scale 1 to 9) | flavour profile: sweet ([1]; scale 1 to 9) | flavour profile: vanillin ([1]; scale 1 to 9) | flavour profile: caramel ([1]; scale 1 to 9) | flavour profile: fresh cheese/quark ([1]; scale 1 to 9) | flavour profile: toffee ([1]; scale 1 to 9) | decomposition on heating [2]
CC(=O)C(C)=O [diacetyl, 2,3-butanedione] | 5 | 5 | 7 | 2 | 4 | 5 | 2 | 7 | 7 | 7 | 4 | 6 | 4 | 2 | – | – | – | –
CC(=O)C1(C)CC2(O)OC(C)(C(C)=O)OC2(C)O1 (racemic) [diacetyl trimer, 2,5-diacetyl-3a,5,6,6a-tetrahydro-6a-hydroxy-2,3a,5-trimethylfuro[2,3-d]-1,3-dioxole] | 7 | 8 | 8 | – | – | 6 | – | 7 | 7 | 6 | – | 6 | 6 | 3 | 4 | 4 | 6 | does not decompose
